In patent publication US20240368619A1, “METHODS AND COMPOSITIONS FOR PPO HERBICIDE TOLERANCE” (SESVanderHave NV, priority 2021, published 2024):
Where two headings read alike, the source gives them in different places.

Tests used:
Type in all cases: in vivo, Beta vulgaris
[1] = test system: wild-type sugar beet plants; test: Spray test of PPO herbicides on control (Ctrl) sugar beet plants; settings: SAF 1X, 200 g a.i./ha, 17 days after spraying
Protocol: (§1) In other experiments, plants carrying the mutation R126L described below in Table 6 were acclimatized in soil for 3-5 weeks and screened for PPO resistance with a spray test of the PPO herbicides Saflufenacil (Brand name TREEVIX at a recommended dose of 200 g a.i./ha), Pyraflufen-ethyl (Brand name EVOLUTION at a recommended dose of 0.8l/ha, or a.i. 26.5 g/l) Saflufenacil (pure compound Sigma at a recommended dose of 200 g a.i./ha). The spray was performed at a concentration of 0.5× and 1× of the recommended dose for Saflufenacil), and 0.2× for Pyraflufen-ethyl). The pure chemical compound SAF used on the regenerated plants in vitro was also used in this screen at 1× recommended dose of 200 g ai/Ha. Water treatment was included as a control. […] In both experiments each sugar beet plant was multiplied in vitro as to include a total of minimum 4 clones or replicates of each edited sugar beet plant per herbicide treatment. The phytotoxicity effect of PPO inhibiting herbicides was measured in mutated sugar beet plants (on a set of minimum 4 clones per edited sugar beet plant) based on a scale from 0% to 100%, or 1 to 5, (i.e. 0% or 1 being no damage/no phytotoxicity observed and 100% or 5, being all plants were completely damaged or killed,) compared to wild-type plants. […]
No score is provided when the plant has not been tested, noted as NT in the table (not tested). […]

[2] = test system: regenerated wild-type sugar beet plants; test: In vitro growth of regenerated wild-type plants on media containing SAF; settings: media containing SAF 2.5 μM; wild-type genotype
Protocol: (§2) In other experiments, screening for resistance to PPO herbicides was done on 25 regenerated sugar beet plants obtained after transfection of guard cell protoplasts by growing these plants (8 clones or copies per plant) on media containing SAF at a concentration of 2.5 μM. Visual observation of growth was done after 20 to 28 days. Plants were scored visually according to their growth, and marked “OK” for plants showing growth, “Bit growth” for plants showing limited growth, “No” for plants showing no growth, or “Dead” for plants that were dead after SAF exposure. The concentration of SAF used in this screen was identified as impacting severely on regenerated wild-type plants obtained after protoplast isolation and regeneration from the sugar beet genotype, from which guard cell protoplasts are isolated for transfection.

[3] = test system: sugar beet plants carrying the R126L mutation; settings: SAF 1X, 200 g a.i./ha, 17 days after spraying
Protocol: as §1
(§3) No score is provided when the plant has not been tested, noted as NT in the table (not tested). Water treatment was included when enough plants were available. At least 4 copies per edited plant were sprayed. Scores were given on group of 4 copies per edited plant. HDR=edited plant showing the expected mutation R to L at position 126, INDEL=edited plant showing another type of edit than the expected mutation.

[4] = test system: sugar beet plants edited at position 126 showing another type of edit than the expected mutation; settings: SAF 1X, 200 g a.i./ha, 17 days after spraying
Protocol: as §1, §3

edited sugar beet plants = test: In vitro growth of regenerated edited plants on media containing SAF; settings: media containing SAF 2.5 μM
Protocol: as §2

For CC(C)N(C)S(=O)(=O)NC(=O)c1cc(-n2c(=O)cc(C(F)(F)F)n(C)c2=O)c(F)cc1Cl [SAF, saflufenacil], which “phytotoxicity score 1 to 5 (healthy to damaged)” value ([1]; B8M52 (Ctrl)) is on record?
The value was 5.

What about the “phytotoxicity score 1 to 5 (healthy to damaged)” value ([1]; HTC005 (Ctrl)) of the same compound?
The value was 5.

And the “effect on growth of regenerated wild-type plants (visual)” value [2]?
The value was “severe growth retardation and in some cases lethal effect”.

And the “phytotoxicity score 1 to 5 (healthy to damaged)” value ([3]; event HTC003 (HDR))?
The value was 4.

And the “phytotoxicity score 1 to 5 (healthy to damaged)” value ([3]; event HTC007 (HDR))?
Its value is 3.

And the “phytotoxicity score 1 to 5 (healthy to damaged)” value ([3]; event HTC013 (HDR))?
The value was 2.

And the “phytotoxicity score 1 to 5 (healthy to damaged)” value ([3]; event HTC015 (HDR))?
The value was 3.

And the “phytotoxicity score 1 to 5 (healthy to damaged)” value ([3]; event HTC018 (HDR))?
Its value is 2.

And the “phytotoxicity score 1 to 5 (healthy to damaged)” value ([3]; event HTC024 (HDR))?
Its value is 4.

What about the “phytotoxicity score 1 to 5 (healthy to damaged)” value ([3]; event HTC046 (HDR)) of the same compound?
The value was 2.

And the “phytotoxicity score 1 to 5 (healthy to damaged)” value ([3]; event HTC056 (HDR))?
The value was 4.

What about the “phytotoxicity score 1 to 5 (healthy to damaged)” value ([4]; event HTC001 (INDEL)) of the same compound?
The value was 5.

What about the “phytotoxicity score 1 to 5 (healthy to damaged)” value ([4]; event HTC002 (INDEL)) of the same compound?
Its value is 4.

And the “phytotoxicity score 1 to 5 (healthy to damaged)” value ([4]; event HTC009 (INDEL))?
Its value is 4.

What about the “phytotoxicity score 1 to 5 (healthy to damaged)” value ([4]; event HTC012 (INDEL)) of the same compound?
The value was 4.

And the “phytotoxicity score 1 to 5 (healthy to damaged)” value ([4]; event HTC014 (INDEL))?
Its value is 4.

What about the “phytotoxicity score 1 to 5 (healthy to damaged)” value ([4]; event HTC016 (INDEL)) of the same compound?
The value was 4.

What about the “phytotoxicity score 1 to 5 (healthy to damaged)” value ([4]; event HTC017 (INDEL)) of the same compound?
The value was 4.

What about the “phytotoxicity score 1 to 5 (healthy to damaged)” value ([4]; event HTC021 (INDEL)) of the same compound?
The value was 5.

And the “phytotoxicity score 1 to 5 (healthy to damaged)” value ([4]; event HTC023 (INDEL))?
The value was 2.

And the “phytotoxicity score 1 to 5 (healthy to damaged)” value ([4]; event HTC028 (INDEL))?
The value was 4.

What about the “growth of edited plants (visual)” value (edited sugar beet plants; 20 to 28 days, edited plants scored as OK and Bit growth) of the same compound?
Its value is “good level of SAF tolerance”.

What about the “growth and plant development of edited versus wild-type plants (visual)” value (edited sugar beet plants; 20 days, HTC013 and HTC015 (R126L), 8 copies each, versus wild-type) of the same compound?
Its value is “Clear differences in growth, and plant development”.
